Experimental data as given in article PMC10901353, “Identification of a potent and selective LAPTc inhibitor by RapidFire-Mass Spectrometry, with antichagasic activity” (PLOS Neglected Tropical Diseases, 2024).
Where “and” joins values, the source holds several entries; their conditions need not be identical. Equal values may be shown once. Entries after “also recorded” stand apart in the source; their conditions may differ. Read-outs that look alike come from different tables or passages of the source.

Columns and labels:
[1] = test system: PfA-M17 (M17 LAP from Plasmodium falciparum); conditions: cited from earlier work
[2] = Cytotoxicity against infected Vero host cells in T. cruzi intracellular assay; type: cell-based, African green monkey; design: Max Effect (Vero): unit not given here; conditions: African green monkey, infected Vero host cells, 96 h, read-out: pCC50 (Vero) +/- StDev (converted)
Protocol: (§1) Briefly, these cells were maintained at 37°C and 5% CO2 in MEM supplemented with 10% FCS, sub-culturing every 2–3 days at a ratio of 1:5 after 5 min treatment with Trypsin-EDTA (Gibco).
(§2) This assay was performed as described with the only modification that treatment was 96 h instead of 72 h. Briefly, Vero cells were infected overnight with tissue culture derived T. cruzi trypomastigotes in T225 tissue culture flasks (MOI 5). Any remaining free trypomastigotes were washed away with serum free MEM and the infected Vero cells were harvested by trypsinisation. Compounds (250 nL in DMSO) were dispensed using LabCyte ECHO (Beckman Coulter Life Sciences, USA) into each well of Corning black flat bottomed 384-well plates (Corning, USA). […] The infected Vero cells were then plated into the plates containing the compounds, at 4,000 cells per well in MEM media with 1% FCS. […] The plates were imaged on a Perkin Elmer Operetta high-content imaging system using a 20× objective. Images were analyzed using the Columbus system (Perkin Elmer). The algorithm first identified the Vero nuclei followed by demarcation of the cytoplasm and identification of intracellular amastigotes. This algorithm reported percent infected Vero cell and total number of Vero cells. All potency determinations were carried out in at least three independent replicates and are reported as pEC50 +/- standard deviation. pEC50 = -log(EC50[M]).

Vero cells = assay: as above; type: cell-based, African green monkey; design: Max Effect (Vero): unit not given here; conditions: for Max Effect (Vero) / pEC50 (Vero): individual replicates
Protocol: as §1, §2

[3] = target: T1, LAPTc (acidic M17 leucyl-aminopeptidase from T. cruzi) (Trypanosoma cruzi, UniProt V5BWE3); assay: High-throughput single point screening for LAPTc inhibitors by RapidFire-MS; type: biochemical; conditions: read-out: Percent Inhibition
T1 sequence (V5BWE3 entry or part of it): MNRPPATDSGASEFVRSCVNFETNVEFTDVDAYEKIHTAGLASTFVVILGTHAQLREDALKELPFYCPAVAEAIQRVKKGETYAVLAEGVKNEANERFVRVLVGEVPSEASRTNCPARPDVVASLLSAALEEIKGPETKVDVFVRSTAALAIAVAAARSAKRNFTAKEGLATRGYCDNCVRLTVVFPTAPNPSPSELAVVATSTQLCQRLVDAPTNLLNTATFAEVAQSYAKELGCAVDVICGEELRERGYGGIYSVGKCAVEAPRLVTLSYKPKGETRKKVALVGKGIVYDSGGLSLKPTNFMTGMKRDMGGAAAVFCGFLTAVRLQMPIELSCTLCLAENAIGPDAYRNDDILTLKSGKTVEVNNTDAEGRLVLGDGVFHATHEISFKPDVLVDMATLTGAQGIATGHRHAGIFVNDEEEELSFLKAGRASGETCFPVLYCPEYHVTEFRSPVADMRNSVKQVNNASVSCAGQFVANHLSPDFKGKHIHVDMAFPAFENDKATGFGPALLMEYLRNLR
Protocol: (§3) This assay was previously described. The assay was performed in 384-well clear F-bottom polypropylene plates with a final reaction volume of 15 μL. The reaction mixture contained 7.5 μL LAPTc in 50 mM Tris-HCl, pH 7.5, 0.005% NP-40 and 7.5 μL LSTVIVR peptide substrate (Cambridge Research Biochemicals, Billingham, UK) in the same buffer was added to start the reaction. The reaction was performed at room temperature for 40 min and then stopped with 85 μL 1% formic acid containing 0.15 mg/mL STVIVR* internal standard (Cambridge Research Biochemicals, Billingham, UK).
Single point screening of a library of 3329 compounds was performed in 384-well clear plates (Greiner 781101) at room temperature. Test compounds (45 nL in DMSO) were transferred to assay plates by an ECHO 550 acoustic dispenser (Labcyte). LAPTc was tested at 3 nM with 150 μM (approximately the value of the apparent Michaelis-Menten constant -appKM- [16]) LSTVIVR peptide substrate in a 40 min reaction. Before addition of substrate, LAPTc was preincubated with 45 nL compounds or DMSO for 15 min. Compounds, dissolved in DMSO, were tested at 30 μM. Controls without compound (the same volume of DMSO, 0% inhibitory effect) and without enzyme and compound (100% inhibitory effect) were prepared. The experiment was performed without replicates. The remaining experimental conditions were maintained as previously described. Data were processed and analysed through ActivityBase XE (IDBS). The selection criterion for hits in this single point screen was percent inhibition larger than the mean plus three standard deviations. All primary screening data are available in ChEMBL (see Data Availability statement).

human LAP3 = target: T2, human LAP3 (Homo sapiens, UniProt P28838); assay: Dose-response studies for human LAP3 inhibition by RapidFire-MS; type: biochemical
T2 construct: purchased Assay Genie, Ireland
T2 sequence (P28838 whole entry): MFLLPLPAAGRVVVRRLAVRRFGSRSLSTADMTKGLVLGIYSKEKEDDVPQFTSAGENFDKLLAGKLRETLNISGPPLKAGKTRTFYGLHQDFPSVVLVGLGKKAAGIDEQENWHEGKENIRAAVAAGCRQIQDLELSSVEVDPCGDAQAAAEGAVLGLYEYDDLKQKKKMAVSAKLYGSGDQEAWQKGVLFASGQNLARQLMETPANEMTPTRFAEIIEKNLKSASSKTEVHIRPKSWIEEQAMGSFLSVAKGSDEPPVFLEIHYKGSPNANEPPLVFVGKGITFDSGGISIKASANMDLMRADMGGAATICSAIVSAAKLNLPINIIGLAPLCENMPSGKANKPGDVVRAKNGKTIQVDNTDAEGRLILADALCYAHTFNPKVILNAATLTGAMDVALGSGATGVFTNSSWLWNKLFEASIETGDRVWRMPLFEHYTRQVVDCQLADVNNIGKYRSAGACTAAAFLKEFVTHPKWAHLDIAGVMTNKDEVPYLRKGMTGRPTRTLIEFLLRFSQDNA
Protocol: Human LAP3 enzyme (Assay Genie, Ireland) was tested at 150 nM with 600 μM (~1 appKM) LSTVIVR peptide substrate and 1 mM ZnCl2 in a 180 min reaction. All other experimental conditions were as described above for dose-response assays with LAPTc.

[4] = Cytotoxicity assay on human HepG2 cells (resazurin); type: cell-based; conditions: human, 72 h, two independent experiments, read-out: pCC50 (HepG2) (converted)
HepG2 cells = assay: as above; type: cell-based; conditions: for Max Effect (HepG2) / pEC50 (HepG2): individual replicates
[5] = target: T1, LAPTc (acidic M17 leucyl-aminopeptidase from T. cruzi); assay: Dose-response studies for LAPTc inhibition by RapidFire-MS; type: biochemical; conditions: for Hit Confirmation: whether primary screen hit confirmed in potency experiment
Protocol: as §3
To generate half-maximum inhibitory concentration (IC50) data for LAPTc, 10-point dose-response curves with 100 μM as highest concentration and 1:2 dilution in DMSO (0.195–100 μM range) were prepared in 384 well plates. All other experimental conditions were as described above. All IC50 curve fitting was performed by four-parameter logistic dose-response curve fit using ActivityBase XE (IDBS). At least three replicates were generated for each hit compound.

[6] = test system: intracellular T. cruzi amastigotes; assay: T. cruzi intracellular assay (high-content imaging, infected Vero cells); type: cell-based, Trypanosoma cruzi; design: Max Effect (T. cruzi): unit not given here; conditions: for EC50 / Emax: Trypanosoma cruzi, Vero; for Emax: read-out: Max Effect (T. cruzi)
Protocol: T. cruzi parasite, TcI strain Silvio X10/7 subclone A1 [34] was maintained in culture as previously described. Parasites were maintained as amastigotes by passaging on a weekly basis in Vero cells. Culture maintenance infections were carried out at an MOI (multiplicity of infection) of 1.5.
This assay was performed as described with the only modification that treatment was 96 h instead of 72 h. Briefly, Vero cells were infected overnight with tissue culture derived T. cruzi trypomastigotes in T225 tissue culture flasks (MOI 5). Any remaining free trypomastigotes were washed away with serum free MEM and the infected Vero cells were harvested by trypsinisation. Compounds (250 nL in DMSO) were dispensed using LabCyte ECHO (Beckman Coulter Life Sciences, USA) into each well of Corning black flat bottomed 384-well plates (Corning, USA). […] The infected Vero cells were then plated into the plates containing the compounds, at 4,000 cells per well in MEM media with 1% FCS. After 96 h incubation at 37°C in presence of 5% CO2, the plates were fixed with 4% formaldehyde for 20 min at room temperature and stained with 5 μg/mL Hoechst 33342. The plates were imaged on a Perkin Elmer Operetta high-content imaging system using a 20× objective. Images were analyzed using the Columbus system (Perkin Elmer). The algorithm first identified the Vero nuclei followed by demarcation of the cytoplasm and identification of intracellular amastigotes. This algorithm reported percent infected Vero cell and total number of Vero cells. All potency determinations were carried out in at least three independent replicates and are reported as pEC50 +/- standard deviation. pEC50 = -log(EC50[M]).

LAPTc = LAPTc (Trypanosoma cruzi, UniProt V5BWE3); assay: Mode of inhibition studies by RapidFire-MS; type: biochemical
LAPTc, sequence (V5BWE3 entry or part of it): as the sequence (V5BWE3 entry or part of it) above
Protocol: Five concentrations of the LSTVIVR peptide substrate (100–1600 μM range) were tested in the presence of 3 nM LAPTc for 40 min. For each substrate concentration, compound 4 was tested at 0, 0.1 and 0.2 μM. For each substrate and compound 4 concentration, a negative control without enzyme was used. Before addition of substrate, LAPTc was preincubated with compound 4 for 15 min. Other experimental conditions were as previously described. Ki was calculated by fitting the Morrison equation to the experimental data. Binding energy (ΔGb) was calculated from Ki according to the equation ΔG = -RTlnKi.

[7] = test system: intracellular T. cruzi amastigotes; design: method as in PMID 30001347; conditions: reported previously in this assay ref 33; cited from earlier work
[8] = Initial hit confirmation, single replicate
[9] = Replicate data generation, individual replicates
[10] = individual replicates, read-out: pEC50 (T. cruzi) (converted)
[11] = average of four independent replicates, read-out: pIC50 +/- StDev (LAPTc) (converted)

SMILES: O=C(NO)C(NC(=O)C12CC3CC(CC(C3)C1)C2)c1ccc(-c2cc(F)c(F)c(F)c2)cc1 (centres unmarked) [Compound 6k]
- Ki [1]: 28.9 nM

SMILES: COc1ccc2oc(C(=O)Nc3nc(-c4ccccn4)cs3)c(C)c2c1 [Compound 4]
- CC50 at 96 h ([2]; Vero cells infected with T. cruzi): 2240 nM
- Selectivity index (fold window Tc/Vero) (Vero cells): 3.3 fold
- Max Effect (Vero) (Vero cells): 85 and 83 and 79
- pEC50 (Vero) (Vero cells): 5.4 and 6.0 and 5.5 and 5.8
- inhibition at 30 µM [3]: 59%
- IC50 (human LAP3): > 100000 nM
- CC50 at 72 h ([4]; HepG2 cells): > 100000 nM
- Selectivity window based on the HepG2 data (HepG2 cells; T. cruzi vs HepG2): > 166 fold
- Max Effect (HepG2) (HepG2 cells): 38 and 49
- pEC50 (HepG2) (HepG2 cells): < 4.0
- toxicity against HepG2 cells (in words) (HepG2 cells; uninfected HepG2 cells): no toxicity was observed; also recorded: some toxicity was seen for compound 4 at 33 μM and 100 μM
- IC50 ([5]; IC50 (LAPTc)): 440 nM
- Hill Slope [5, 8]: 2.5
- Hill Slope [5, 9]: 2.8 and 2.1 and 2.3
- Maximum Effect [5, 9]: 87% and 81%
- IC50 ([5]; pIC50 +/- StDev (LAPTc), average of four independent replicates): 437 nM
- IC50 ([5]; pIC50, Initial hit confirmation, single replicate): 200 nM
- IC50 ([5]; pIC50, Replicate data generation, individual replicates): 794 nM and 501 nM
- Emax ([5]; read-out: Maximum Effect, Initial hit confirmation, single replicate): 96%
- Emax ([5]; read-out: Maximum Effect, Replicate data generation, individual replicates): 83%
- Hit Confirmation [5]: confirmed
- EC50 ([6]; 96 h, four independent experiments, read-out: pEC50 (T. cruzi) +/- StDev (converted)): 676 nM
- EC50 ([6]; 96 h, read-out: EC50 (T. cruzi amastigotes)): 700 nM
- Emax ([6]; individual replicates): 95%
- EC50 [6, 10]: 631 nM
- Max Effect (T. cruzi) ([6]; individual replicates): 92 and 96 and 100
- pEC50 (T. cruzi) ([6]; individual replicates): 6.1
- Ki (LAPTc): 270 nM
- ligand efficiency (LE) (LAPTc; LE = -RT ln Ki / number of non-hydrogen atoms): 0.33
- experimental binding energy (ΔGb) (LAPTc; calculated from Ki, ΔG = -RTlnKi): -8.95 kcal/mol
- mode of inhibition (LAPTc; with respect to substrate peptide LSTVIVR, Lineweaver-Burk): competitive inhibitor

SMILES: CC(C)C[C@H](NC(=O)[C@@H](O)[C@H](N)Cc1ccccc1)C(=O)O [bestatin, reference compound]
- IC50 [5, 11]: 240 nM
- Ki [1]: 25 nM

SMILES: CC1CS(=O)(=O)CCN1/N=C/c1ccc([N+](=O)[O-])o1 (centres unmarked) [nifurtimox]
- EC50 [7]: 800 nM
- pEC50 (T. cruzi) [7]: 6.1

SMILES: NC(CCc1ccccc1)P(=O)(O)CC(Cc1ccccc1)C(=O)O (centres unmarked) [Co4]
- Ki [1]: 13 nM

SMILES: O=C(Cn1ccnc1[N+](=O)[O-])NCc1ccccc1 [benznidazole]
- EC50 [7]: 2000 nM
- pEC50 (T. cruzi) [7]: 5.7

SMILES: CC(C)(C)C(=O)NC(C(=O)NO)c1ccc(-c2cc(F)c(F)c(F)c2)cc1 (centres unmarked) [Compound 10o]
- Ki [1]: 60 nM

SMILES: CC(C)C[C@@H](NC(=O)[C@H](O)[C@@H](N)Cc1ccc([N+](=O)[O-])cc1)C(=O)O [nitrobestatin]
- Ki [1]: 2.7 nM

SMILES: CC(C)(C)C(=O)NC(C(=O)NO)c1ccc(-n2cccn2)cc1 (centres unmarked) [Compound 13d]
- Ki [1]: 28 nM

SMILES: N#CC(=Cc1cn(Cc2ccc(C(=O)O)o2)c2ccccc12)c1nc2ccccc2[nH]1 [Compound 15]
- CC50 at 96 h [2]: 38000 nM
- Max Effect (Vero) (Vero cells): 63 and 36 and 65 and 66
- pEC50 (Vero) (Vero cells): 4.4 and < 4.3 and 4.5 and 4.3
- inhibition at 30 µM ([3]; primary screen, 30 μM, single replicate): 39%
- CC50 at 72 h [4]: > 100000 nM
- Max Effect (HepG2) (HepG2 cells): 2.23 and 3
- pEC50 (HepG2) (HepG2 cells): < 4.0
- Hill Slope [5, 8]: 1.5
- Emax ([5]; Initial hit confirmation, single replicate, read-out: Maximum Effect): 92%
- IC50 ([5]; Initial hit confirmation, single replicate, read-out: pIC50 (converted)): 12600 nM
- Hill Slope [5, 9]: 1.7 and 1.4 and 1.5
- Maximum Effect [5, 9]: 87%
- Emax ([5]; Replicate data generation, individual replicates, read-out: Maximum Effect): 88%
- IC50 ([5]; Replicate data generation, individual replicates, read-out: pIC50 (converted)): 25100 nM and 31600 nM
- IC50 [5, 11]: 22900 nM
- Hit Confirmation [5]: confirmed
- EC50 ([6]; 96 h, read-out: pEC50 (T. cruzi) +/- StDev (converted)): > 50100 nM
- Emax ([6]; individual replicates): 24%
- EC50 [6, 10]: > 50100 nM
- Max Effect (T. cruzi) ([6]; individual replicates): 19 and 38
